Experimental data: US20040147006A1, “Peptides that bind to DNA and inhibit DNA replication, and methods of use” (priority 2001, published 2004)
Entries after “also recorded” stand apart in the source; their conditions may differ. Like-named read-outs stand apart in the source and are kept apart here.

Key:
[1] = target: T1, T-ag oligomerization on 64-bp oligonucleotide containing the SV40 core origin (Simian virus 40, UniProt P03070); type: biochemical; details: for Effect on T-ag oligomerization: peptide final concentration 0.5 mM
T1 construct: made in house
Protocol: (§1) Electrophoretic mobility shift assays (EMSA). Double stranded oligonucleotides, ^32P labeled at 5′ termini, were prepared using standard procedures (Sambrook, J., et al., 1989, Cold Spring Harbor Laboratory, Cold Spring Harbor, N.Y.; Sreekumar, K. A., et al., 2000, p. 49-67; In, L. Raptis (ed.), Methods in Molecular Biology; SV40 Protocols; Humana Press; Totowa, N.J.). EMSA rections were conducted using conditions for SV40 in vitro replication (Wobbe, C. R., et al., 1985, Proc. Natl. Acad. Sci. USA 82:5710-571 4). The reactions (20 μl) contained 7 mM MgCl2, 0.5 mM DTT, 4 mM AMP-PNP, 40 mM creatine phosphate (pH 7.6), 0.48 μg of creatine phosphate kinase, 5 μg of bovine serum albumin, 0.8 μg of Hae III-digested pBR322 ([…]; used as a nonspecific competitor), about 25 fmol of double stranded oligonucleotide, T-ag and the indicated amounts of peptide. After a 20-min incubation at 37° C., glutaraldehyde (0.1 % final concentration) was added and the reaction products were further incubated for 5 min. The reactions were stopped by the addition of 5 μl of 6× loading dye II (15% Ficoll, 0.25% bromophenol blue, and 0.25% xylene cyanol; Sambrook, J., et al., 1989, Cold Spring Harbor Laboratory, Cold Spring Harbor, N.Y.) to the reaction mixtures. Samples containing T-ag were applied to 3.5 to 12% gradient polyacrylamide gels and electrophoresed in 0.5% Tris-borate-EDTA (TBE) pH 8.4 for about 1.5 h (10 watts).

[2] = system: 64 bp enhancer control (SEQ ID NO: 29); assay: Peptide band shift (EMSA without T-ag), control oligonucleotide; type: binding; details: 64 bp enhancer control oligonucleotide; listed as peptide T124A13
Protocol: as §1
Peptide based band shift reactions were identical to those described above except that T-ag was omitted from the reactions and the final glutaraldehyde concentration was reduced to 0.05 %. Moreover, the samples were loaded on 8% polyacryamide gels and electrophoresed in 0.5% TBE pH 8.4 for about 3h (about 200 volts). The gels were dried on Whatman 3 MM paper, subjected to autoradiography and quantitated using a Molecular Dynamics PhosphorImager (Sunnyvale, Calif.).

[3] = system: 64 bp SV40 core origin (SEQ ID NO: 24); assay: Peptide band shift (EMSA without T-ag), core origin; type: binding; details: SV40 core origin
Protocol: as §1
[…] Moreover, the samples were loaded on 8% polyacryamide gels and electrophoresed in 0.5% TBE pH 8.4 for about 3h (about 200 volts). The gels were dried on Whatman 3 MM paper, subjected to autoradiography and quantitated using a Molecular Dynamics PhosphorImager (Sunnyvale, Calif.).

[4] = system: double stranded oligonucleotide containing the SV40 core origin (SEQ ID NO: 24); assay: Nitrocellulose filter binding of peptide to DNA; details: for Binding to DNA in filter binding assay, mutant set: 20 nmoles peptide (1 mM final concentration); for Binding to DNA in filter binding assay, E1 peptides: peptide 0.25 mM and 0.5 mM
Protocol: Nitrocellulose filter binding reactions. Assay for the ability of NLS based peptides to bind to DNA were performed using published methods (Sreekumar, K. A., et al., 2000, In, L. Raptis (ed.), Methods in Molecular Biology: SV40 Protocols; Humana Press, Totowa, N.J. p. 49-67). Reactions (20 μl) contained 7 mM MgCl2, 0.5 mM DTT, 4 mM AMP-PNP, 40 mM creatine phosphate (di-Tris salt pH7.7), 0.48 μg of creatine phosphokinase, 0.2 mg of bovine serum albumin per ml, 0.8 μg of Hae III-digested pBR322 DNA, about 25 fmol of a given oligonucleotide (about 10^6 cpm/pmol) and the indicated peptide. After incubation for 20 min at 37° C., the mixtures were filtered under suction through alkali-treated nitrocellulose filters (Millipore type HAWP; pore size, 0.4 μm; stored in 100 mM Tris-HCl, pH7.5). The filters were then washed with 5 ml of 100 mM Tris-HCl, pH 7.5, and were dried and counted in a Beckman LS 3801 scintillation counter.

T-ag helicase ATPase = target: T2, T-ag helicase ATPase (Simian virus 40, UniProt P03070); type: biochemical, SV40; details: duplicate lanes, FIG. 13
T2 construct: made in house
Protocol: A method for measuring ATP hydrolysis involves incubating T-ag with a ^32P-labeled ATP, cross-linking with gluteraldehyde, removing unincorporated nucleotides by passing the reaction products over a Bio-Spin P-30 column, drying the eluate in a Speedvac, resuspending the samples in formic acid, and performing thin layer chromatography on PEI (polyethyleneimine) plates. Using autoradiography, the amount of ATP, ADP and AMP associated with T-ag was determined.

[5] = system: SV40 DNA replication in HeLa human cell crude extracts; assay: SV40 in vitro replication reaction; type: biochemical; details: 30 μl reactions, with T-ag
Protocol: DNA replication reactions. SV40 in vitro replication reactions were conducted as described by Wobbe et al 1985, Proc. Natl. Acad. Sci. USA 82:5710-5714 (see also, Bullock, P. A., et al., 1998, p. 223-243. In S. Cotterill (ed.), Eukaryotic DNA Replication; A practical Approach, Oxford University Press, Oxford). Reaction mixtures (30 μl) contained 7 mM MgCl2, 0.5 mM DTT, 4 mM ATP, 40 mM creatine phosphate (di-Tris salt pH7.7), 1.4 μg of creatine phosphokinase, 12.5 μg/ml pSV01ΔEP, dATP, dGTP, and dTTP (100 μM each), CTP, GTP, and UTP (200 μM each), [α-^32p] dCTP (20 μM, about 5 cpm/fmol) and the indicated peptides.

[6] = T-ag 6 pmol, 64-bp SV40 core origin, peptide concentration not given
[7] = 13-mer set at 1 mM final concentration (20 nmoles)
[8] = peptide 0.5 mM to 2 mM, replication conditions, pBR322 competitor
[9] = peptide final concentration 1 mM (20 nmoles), T-ag 6 pmol
[10] = high peptide concentrations (1 mM and 2 mM)

T1 sequence (P03070 whole entry): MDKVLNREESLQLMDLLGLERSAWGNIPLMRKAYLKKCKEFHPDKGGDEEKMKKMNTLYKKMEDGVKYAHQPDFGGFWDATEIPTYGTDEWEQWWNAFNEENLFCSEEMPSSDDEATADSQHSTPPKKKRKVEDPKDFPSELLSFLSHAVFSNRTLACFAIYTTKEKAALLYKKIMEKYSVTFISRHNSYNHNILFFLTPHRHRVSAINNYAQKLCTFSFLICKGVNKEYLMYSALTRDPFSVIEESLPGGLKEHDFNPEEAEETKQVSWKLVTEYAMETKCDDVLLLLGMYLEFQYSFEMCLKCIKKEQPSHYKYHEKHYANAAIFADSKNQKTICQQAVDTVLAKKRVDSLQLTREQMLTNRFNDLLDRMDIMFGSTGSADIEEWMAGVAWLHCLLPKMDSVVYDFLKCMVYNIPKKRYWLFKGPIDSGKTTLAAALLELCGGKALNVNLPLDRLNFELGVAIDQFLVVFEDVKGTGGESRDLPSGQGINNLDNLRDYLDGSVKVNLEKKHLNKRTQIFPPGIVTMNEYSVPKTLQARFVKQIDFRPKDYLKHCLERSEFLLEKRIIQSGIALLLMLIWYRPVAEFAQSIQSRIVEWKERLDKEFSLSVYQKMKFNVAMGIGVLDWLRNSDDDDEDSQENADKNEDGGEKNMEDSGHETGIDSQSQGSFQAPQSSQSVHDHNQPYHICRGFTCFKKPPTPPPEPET
T2 sequence (P03070 whole entry): as above

ADSQHSAPPKKKR [T124A13]
Effect on T-ag oligomerization, mutant set (FIG. 11 Panel B) [1, 6]: does not destroy the inhibitory property of the peptide
Peptide/DNA complex formation in peptide band shift [2]: does not require a large degree of sequence specificity; also recorded: requires little demonstrable nucleotide sequence specificity; also recorded: Mobility shifts are seen
Peptide/DNA complex formation in peptide band shift [3, 7]: does not affect DNA binding
Peptide/DNA complex formation in peptide band shift ([3]; 13-mer set at 1 mM final concentration (20 nmoles), listed as peptide T124A13): bound to DNA and formed a complex; also recorded: Mobility shifts are seen
Binding to DNA in filter binding assay, mutant set [4]: bind to DNA as well as does wild type peptide T-213

ADSQHSTAPKKKR [P125A13]
Effect on T-ag oligomerization, mutant set (FIG. 11 Panel B) [1, 6]: Full inhibition of oligomerization
Binding to DNA in filter binding assay, mutant set [4]: bind to DNA as well as does wild type peptide T-213

ADSQHSTPAKKKR [P126A13]
Effect on T-ag oligomerization, mutant set (FIG. 11 Panel B) [1, 6]: Full inhibition of oligomerization
Binding to DNA in filter binding assay, mutant set [4]: bind to DNA as well as does wild type peptide T-213

ADSQHSpTPPKKKR [peptide 113]
Effect on ATPase of T-ag (T-ag helicase ATPase): did not modulate the ATPase of T-ag activity
Effect on T-ag oligomerization (hexamer and double hexamer formation) [1]: little or no effect on T-ag oligomerization
Effect on T-ag oligomerization, mutant set (FIG. 11 Panel B) [1]: did not; also recorded: no inhibition of oligomerization of T-ag
Binding to DNA in filter binding assay [4, 8]: did not bind DNA at significant levels
Binding to DNA in filter binding assay ([4]; peptide 0.5 mM to 2 mM, replication conditions, pBR322 competitor, listed as peptide T-113): did not bind to the oligonucleotide at significant levels

ATADSQHSTPPKKKRKV (Virus; Host Macaca mulatta; DOMAIN (1)..(17) Domain SV40 T-Antigen (116)...(132)) [peptide 217, 17-mer of SV40 T-ag with complete NLS]
Effect on T-ag oligomerization ([1]; T-ag 6 pmol): inhibited T-ag oligomerization
Effect on T-ag oligomerization (hexamer and double hexamer formation) [1, 9]: completely blocked
Inhibition of SV40 in vitro DNA replication [5]: not an efficient inhibitor of DNA replication; also recorded: unable to inhibit replication
Binding to DNA in filter binding assay [4, 10]: saturated
Binding to DNA in filter binding assay ([4]; peptide 0.5 mM): significant binding was observed
Binding to DNA in filter binding assay [4, 8]: relatively high affinity for binding to DNA
Binding to DNA in filter binding assay ([4]; peptide 0.5 mM to 2 mM, replication conditions, pBR322 competitor, listed as peptide T-217): higher affinity for this DNA than does peptide T-213

ATADSQHSpTPPKKKRKV [peptide 117]
Effect on T-ag oligomerization (hexamer and double hexamer formation) [1]: no inhibition of T-ag assembly
Binding to DNA in filter binding assay [4, 10]: observed to bind to DNA
Binding to DNA in filter binding assay ([4]; high peptide concentrations (1 mM and 2 mM), listed as peptide T-117): observed to bind to DNA at higher peptide concentrations

KKRRKRVKLVGPSTSEQSNASESSG [SEQ ID NO: 30]
Inhibition of SV40 in vitro DNA replication [5]: retains ability to inhibit replication of DNA
Inhibition of SV40 in vitro DNA replication ([5]; listed as SEQ ID NO:30): good inhibitor of DNA replication

PPKKKRKVTATADSQHS [peptide 417, rearranged control 17-mer]
Effect on T-ag oligomerization ([1]; T-ag 6 pmol): did not inhibit
Effect on T-ag oligomerization ([1]; T-ag 6 pmol, listed as peptide T-417): did not
Binding to DNA in filter binding assay [4, 10]: observed to bind to DNA
Binding to DNA in filter binding assay ([4]; high peptide concentrations (1 mM and 2 mM), listed as peptide T-417): observed to bind to DNA at higher peptide concentrations

PPKKKRKVpTATADSQHS [peptide 317]
Effect on T-ag oligomerization (hexamer and double hexamer formation) [1]: no inhibition of T-ag assembly

PPKKKRTADSQHS [peptide 413, rearranged control 13-mer]
Effect on T-ag oligomerization (hexamer and double hexamer formation) [1, 9]: little or no effect on T-ag oligomerization
Peptide/DNA complex formation in peptide band shift [3, 7]: did not
Binding to DNA in filter binding assay [4, 10]: Low levels of binding
Binding to DNA in filter binding assay ([4]; high peptide concentrations (1 mM and 2 mM), listed as peptide T-413): low levels of binding

PPKKKRpTADSQHS [peptide 313]
Effect on T-ag oligomerization (hexamer and double hexamer formation) [1]: little or no effect on T-ag oligomerization

RKVLGSSQNSSGSEASEpTPVKRRK [peptide E1-P125]
Effect on ATPase of T-ag (T-ag helicase ATPase): had no effect
Binding to DNA in filter binding assay, E1 peptides [4]: binds to DNA at levels similar to the control peptide E1-425

SEASETPVKRRKGKRKVLGSSQNSS [control BP-E125]
Effect on T-ag assembly, E1 Cdk/NLS peptides ([1]; 5 nmol peptide, final concentration 0.25 mM, T-ag 6 pmol): found not to block T-ag assembly
Inhibition of SV40 in vitro DNA replication [5]: not an efficient inhibitor of replication
Binding to DNA in filter binding assay, E1 peptides [4]: bound to DNA at much reduced levels

SQHSTPPKK [peptide 29]
Peptide/DNA complex formation in peptide band shift ([3]; peptide 2 mM): binding was not detected
